Drawing on patent EP4707277A1, “NOVEL HETEROCYCLIC AMINE DERIVATIVES AND PHARMACEUTICAL COMPOSITION COMPRISING SAME” (Daewoong Pharmaceutical Co., Ltd., priority 2023, dated 2024), this text covers IC50 for 22 compounds.

One assay addresses T1, BTK (Homo sapiens, UniProt Q06187).
T1 construct: purchased Signalchem B10-10H
Kind of assay: Inhibitory activity against BTK, ADP-Glo Kinase system (Promega). The assay is classed as biochemical. The gist of the method: (§1)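 IC50 values were fitted from kinase reactions run for 1 h at 30°C with either 1 mM ATP or ATP at Km (10 µM for BTK, 25 µM for ITK). Reactions used 0.2 µg/µl poly(Glu4,Tyr1), recombinant human enzyme (BTK 10 ng, ITK 4 ng per reaction) in Tris pH 7.5 Mn/Mg buffer with 1% DMSO. ADP formed was read by ADP-Glo luminescence.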
For orientation: ADP-Glo first removes unused ATP, then detects ADP through luciferase.

The target in the next assay is T2, ITK (Homo sapiens, UniProt Q08881).
T2 construct: purchased Signalchem I13-11G-10
T2 sequence (Q08881 1-620): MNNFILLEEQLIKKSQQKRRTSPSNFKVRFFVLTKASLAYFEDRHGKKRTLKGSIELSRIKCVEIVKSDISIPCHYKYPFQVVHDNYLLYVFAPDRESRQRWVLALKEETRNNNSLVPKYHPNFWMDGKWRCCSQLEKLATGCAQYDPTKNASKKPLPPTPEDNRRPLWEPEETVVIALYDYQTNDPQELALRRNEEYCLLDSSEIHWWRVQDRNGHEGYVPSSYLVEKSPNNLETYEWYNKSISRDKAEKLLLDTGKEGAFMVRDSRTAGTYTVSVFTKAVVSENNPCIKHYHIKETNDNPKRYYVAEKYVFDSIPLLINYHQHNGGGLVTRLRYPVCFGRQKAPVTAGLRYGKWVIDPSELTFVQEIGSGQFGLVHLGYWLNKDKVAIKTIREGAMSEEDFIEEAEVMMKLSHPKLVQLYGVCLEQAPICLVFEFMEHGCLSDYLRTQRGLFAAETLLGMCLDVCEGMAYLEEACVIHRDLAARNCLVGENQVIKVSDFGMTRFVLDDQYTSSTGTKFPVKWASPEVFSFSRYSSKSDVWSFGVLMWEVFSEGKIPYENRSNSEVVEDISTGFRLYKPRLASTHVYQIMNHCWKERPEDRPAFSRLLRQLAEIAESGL
Kind of assay: Inhibitory activity against ITK, ADP-Glo Kinase system (Promega). The assay is classed as biochemical. The gist of the method: as §1

The mark [1] stands for this setting: 1mM ATP, read-out: BTK IC50(nM) 1mM ATP.
Where [2] appears, read: 1mM ATP, read-out: ITK IC50(nM) 1mM ATP.
[3] abbreviates: Km ATP (BTK: 10 uM), read-out: BTK IC50(nM) Km ATP.
Where [4] appears, read: Km ATP (ITK: 25uM), read-out: ITK IC50(nM) Km ATP.

The structures appear in SMILES notation. Read-outs that look alike come from different tables or passages of the source.

T1 sequence (Q06187 whole entry): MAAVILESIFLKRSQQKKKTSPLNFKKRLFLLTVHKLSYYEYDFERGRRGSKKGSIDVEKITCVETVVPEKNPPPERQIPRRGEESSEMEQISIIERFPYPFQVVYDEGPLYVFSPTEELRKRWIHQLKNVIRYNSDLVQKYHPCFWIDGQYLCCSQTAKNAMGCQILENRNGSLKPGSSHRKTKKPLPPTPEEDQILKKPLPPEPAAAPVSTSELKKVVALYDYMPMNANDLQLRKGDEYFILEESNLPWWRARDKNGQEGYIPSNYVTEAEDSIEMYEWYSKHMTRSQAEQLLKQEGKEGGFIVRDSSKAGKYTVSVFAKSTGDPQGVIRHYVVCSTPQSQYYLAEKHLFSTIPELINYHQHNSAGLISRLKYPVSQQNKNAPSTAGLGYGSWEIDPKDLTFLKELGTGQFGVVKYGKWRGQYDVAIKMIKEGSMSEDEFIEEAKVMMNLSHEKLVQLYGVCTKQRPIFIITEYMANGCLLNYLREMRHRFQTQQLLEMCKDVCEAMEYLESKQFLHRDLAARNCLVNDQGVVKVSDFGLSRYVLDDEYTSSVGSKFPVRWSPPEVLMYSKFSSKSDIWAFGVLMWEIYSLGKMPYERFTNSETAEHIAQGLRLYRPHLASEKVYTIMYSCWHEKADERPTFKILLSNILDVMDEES

Consider `C=CC(=O)N1CC=C(c2nc(Nc3ncc(C)s3)cc3c2ccn3[C@H](C)C(F)(F)F)CC1` [Example 24, (R)-1-(4-(6-((5-methylthiazol-2-yl)amino)-1-(1,1,1-trifluoropropan-2-yl)-1H-pyrrolo[3,2-c]pyridin-4-yl)-3,6-dihydropyridin-1(2H)-yl)prop-2-en-1-one], for which the half-maximal inhibitory concentration (IC50) at BTK (setting [1]) is ≤ 20 nM; on ITK (setting [2]) it was 20 to 100 nM.

For `C=CC(=O)N1CC[C@H]1COc1nc(Nc2ncc(C)s2)cc2c1ccn2C(C)C` [Example 86, (S)-1-(2-(((1-isopropyl-6-((5-methylthiazol-2-yl)amino)-1H-pyrrolo[3,2-c]pyridin-4-yl)oxy)methyl)azetidin-1-yl)prop-2-en-1-one], the IC50 at BTK (setting [1]) was ≤ 20 nM; at ITK (setting [2]) it was 20 to 100 nM.

Take `C=CC(=O)N1C[C@@H](Oc2nc(Nc3ncc(C)s3)cc3c2ccn3C2CCCC2)C[C@H]1C` [Example 100, 1-((2R,4S)-4-((1-cyclopentyl-6-((5-methylthiazol-2-yl)amino)-1H-pyrrolo[3,2-c]pyridin-4-yl)oxy)-2-methylpyrrolidin-1-yl)prop-2-en-1-one]: the IC50 at BTK (setting [1]) and on ITK (setting [2]) was ≤ 20 nM in each case.

For `C=CC(=O)N1CC(C)(Oc2nc(Nc3ncc(C)s3)cc3c2ccn3CCC)C1` [Example 176, 1-(3-methyl-3-((6-((5-methylthiazol-2-yl)amino)-1-propyl-1H-pyrrolo[3,2-c]pyridin-4-yl)oxy)azetidin-1-yl)prop-2-en-1-one], the concentration for half-maximal inhibition (IC50) on BTK (setting [1]) and on ITK (setting [2]) was ≤ 20 nM in each case.

Take `C=CC(=O)Nc1c(F)ccc(-c2nc(Nc3ncc(C)s3)cc3c2ccn3C)c1F` [Example 57, N-(2,6-difluoro-3-(1-methyl-6-((5-methylthiazol-2-yl)amino)-1H-pyrrolo[3,2-c]pyridin-4-yl)phenyl)acrylamide]: the IC50 at BTK (setting [3]) and at ITK (setting [4]) was ≤ 20 nM throughout.

As for `C=CC(=O)N1CCC[C@H](Oc2nc(Nc3ncc(C)s3)cc3c2ccn3CC2CC2)C1` [Example 149, (S)-1-(3-((1-(cyclopropylmethyl)-6-((5-methylthiazol-2-yl)amino)-1H-pyrrolo[3,2-c]pyridin-4-yl)oxy)piperidin-1-yl)prop-2-en-1-one], the IC50 on BTK (setting [1]) and on ITK (setting [2]) was ≤ 20 nM in each case.

Take `C=CC(=O)N1C[C@@H](Oc2nc(Nc3ncc(C)s3)cc3c2ccn3C)C[C@@H]1C` [Example 185, 1-((2S,4S)-2-methyl-4-((1-methyl-6-((5-methylthiazol-2-yl)amino)-1H-pyrrolo[3,2-c]pyridin-4-yl)oxy)pyrrolidin-1-yl)prop-2-en-1-one]: the IC50 at BTK (setting [1]) and on ITK (setting [2]) was ≤ 20 nM throughout.

On to `C=CC(=O)N1C[C@@H](F)[C@H](Oc2nc(Nc3ncc(C)s3)cc3c2ccn3CC)C1` [Example 154, 1-((3R,4R)-3-((1-ethyl-6-((5-methylthiazol-2-yl)amino)-1H-pyrrolo[3,2-c]pyridin-4-yl)oxy)-4-fluoropyrrolidin-1-yl)prop-2-en-1-one], for which the half-maximal inhibitory concentration (IC50) at BTK (setting [1]) and on ITK (setting [2]) was ≤ 20 nM throughout.

Regarding `C=CC(=O)N1C[C@@H](C)[C@H](Oc2nc(Nc3ncc(C)s3)cc3c2ccn3C(C)C)C1` (racemic) [Example 92, rac-1-((3S,4R)-3-((1-isopropyl-6-((5-methylthiazol-2-yl)amino)-1H-pyrrolo[3,2-c]pyridin-4-yl)oxy)-4-methylpyrrolidin-1-yl)prop-2-en-1-one], the concentration for half-maximal inhibition (IC50) on BTK (setting [1]) and at ITK (setting [2]) was ≤ 20 nM each time.

Consider `C=CC(=O)N1CC=C(c2nc(Nc3ncc(C)s3)cc3c2ccn3CC(F)(F)F)CC1` [Example 19, 1-(4-(6-((5-methylthiazol-2-yl)amino)-1-(2,2,2-trifluoroethyl)-1H-pyrrolo[3,2-c]pyridin-4-yl)-3,6-dihydropyridin-1(2H)-yl)prop-2-en-1-one], for which the IC50 was 20 to 100 nM on BTK (setting [1]), ≤ 20 nM on BTK (setting [3]), 100 to 500 nM at ITK (setting [2]) and ≤ 20 nM on ITK (setting [4]).

On to `C=CC(=O)Nc1ccc(F)c(-c2nc(Nc3ncc(C)s3)cc3c2ccn3CC(F)(F)F)c1` [Example 78, N-(4-fluoro-3-(6-((5-methylthiazol-2-yl)amino)-1-(2,2,2-trifluoroethyl)-1H-pyrrolo[3,2-c]pyridin-4-yl)phenyl)acrylamide], for which the figures for the IC50 on BTK (setting [1]) and at ITK (setting [2]) were ≤ 20 nM and 20 to 100 nM, respectively.

For `C=CC(=O)N1CCC[C@H]1COc1nc(Nc2ncc(C)s2)cc2c1ccn2C(C)C` [Example 219, (S)-1-(2-(((1-isopropyl-6-((5-methylthiazol-2-yl)amino)-1H-pyrrolo[3,2-c]pyridin-4-yl)oxy)methyl)pyrrolidin-1-yl)prop-2-en-1-one], the IC50 on BTK (setting [1]) is 20 to 100 nM; on ITK (setting [2]), > 500 nM.

Turning to `C=CC(=O)N1CCC=C(c2nc(Nc3ncc(C)s3)cc3c2ccn3C(C)(C)C#N)C1` [Example 23, 2-(4-(1-acryloyl-1,2,5,6-tetrahydropyridin-3-yl)-6-((5-methylthiazol-2-yl)amino)-1H-pyrrolo[3,2-c]pyridin-1-yl)-2-methylpropanenitrile], the IC50 at BTK (setting [3]) was 20 to 100 nM; at ITK (setting [4]), ≤ 20 nM.

In the case of `C=CC(=O)N1CC(Oc2nc(Nc3ncc(C)s3)cc3c2ccn3CC(C)C)C1` [Example 118, 1-(3-((1-isobutyl-6-((5-methylthiazol-2-yl)amino)-1H-pyrrolo[3,2-c]pyridin-4-yl)oxy)azetidin-1-yl)prop-2-en-1-one], the IC50 on BTK (setting [3]) and on ITK (setting [4]) was 20 to 100 nM throughout.

For `C=CC(=O)N1C[C@@H](F)[C@@H](Oc2nc(Nc3ncc(C)s3)cc3c2ccn3CC(C)C)C1` [Example 135, 1-((3R,4S)-3-fluoro-4-((1-isobutyl-6-((5-methylthiazol-2-yl)amino)-1H-pyrrolo[3,2-c]pyridin-4-yl)oxy)pyrrolidin-1-yl)prop-2-en-1-one], the IC50 at BTK (setting [1]) and on ITK (setting [2]) was > 500 nM throughout.

Consider `C=CC(=O)N1C2C=C(c3nc(Nc4ncc(C)s4)cc4c3ccn4CC3CC3)CC1CC2` (stereo not drawn) [Example 39, 1-(3-(1-(cyclopropylmethyl)-6-((5-methylthiazol-2-yl)amino)-1H-pyrrolo[3,2-c]pyridin-4-yl)-8-azabicyclo[3.2.1]oct-2-en-8-yl)prop-2-en-1-one], for which the IC50 on BTK (setting [1]) and at ITK (setting [2]) was ≤ 20 nM in each case.

Regarding `C=CC(=O)N1C[C@@H](F)[C@H](Oc2nc(Nc3ncc(C)s3)cc3c2ccn3[C@@H](C)CC)C1` [Example 113, 1-((3R,4R)-3-((1-((S)-sec-butyl)-6-((5-methylthiazol-2-yl)amino)-1H-pyrrolo[3,2-c]pyridin-4-yl)oxy)-4-fluoropyrrolidin-1-yl)prop-2-en-1-one], the IC50 on BTK (setting [1]) and at ITK (setting [2]) was ≤ 20 nM throughout.

Take `C=CC(=O)Nc1cc(-c2nc(Nc3ncc(C)s3)cc3c2ccn3CC(C)C)c(F)cc1F` [Example 67, N-(2,4-difluoro-5-(1-isobutyl-6-((5-methylthiazol-2-yl)amino)-1H-pyrrolo[3,2-c]pyridin-4-yl)phenyl)acrylamide]: the IC50 is ≤ 20 nM on BTK (setting [1]), ≤ 20 nM on BTK (setting [3]), 20 to 100 nM on ITK (setting [2]) and ≤ 20 nM at ITK (setting [4]).

Turning to `C=CC(=O)N1CCC[C@H](Oc2nc(Nc3ncc(C)s3)cc3c2ccn3C(C)C)C1` [Example 84, (S)-1-(3-((1-isopropyl-6-((5-methylthiazol-2-yl)amino)-1H-pyrrolo[3,2-c]pyridin-4-yl)oxy)piperidin-1-yl)prop-2-en-1-one], the 50% inhibitory concentration (IC50) was ≤ 20 nM at BTK (setting [1]) and 20 to 100 nM on ITK (setting [2]).

For the compound `C=CC(=O)N1C[C@@H](F)[C@H](Oc2nc(Nc3ncc(C)s3)cc3c2ccn3CCC)C1` [Example 161, 1-((3R,4R)-3-fluoro-4-((6-((5-methylthiazol-2-yl)amino)-1-propyl-1H-pyrrolo[3,2-c]pyridin-4-yl)oxy)pyrrolidin-1-yl)prop-2-en-1-one], the half-maximal inhibitory concentration (IC50) at BTK (setting [1]) and at ITK (setting [2]) was ≤ 20 nM in each case.

`C=CC(=O)N1CC=C(c2nc(Nc3cc(C(F)(F)F)ncn3)cc3c2ccn3C(C)C)CC1` [Example 45, 1-(4-(1-isopropyl-6-((6-(trifluoromethyl)pyrimidin-4-yl)amino)-1H-pyrrolo[3,2-c]pyridin-4-yl)-3,6-dihydropyridin-1(2H)-yl)prop-2-en-1-one]: the IC50 fell in the range of 20 to 100 nM at BTK (setting [1]) and 100 to 500 nM on ITK (setting [2]).

Turning to `C=CC(=O)N1C[C@H](F)[C@H](Oc2nc(Nc3ncc(C)s3)cc3c2ccn3CC)C1` [Example 152, 1-((3R,4S)-3-((1-ethyl-6-((5-methylthiazol-2-yl)amino)-1H-pyrrolo[3,2-c]pyridin-4-yl)oxy)-4-fluoropyrrolidin-1-yl)prop-2-en-1-one], the half-inhibitory concentration (IC50) on BTK (setting [1]) and at ITK (setting [2]) was ≤ 20 nM throughout.

One may read the IC50 as the midpoint of a concentration-inhibition curve.
